From US7812037B2, “Dual antiplatelet/anticoagulant pyridoxine analogs” (Medicure International, Inc., priority 2004, dated 2010)

Key:
[1] = test system: platelets (platelet rich plasma); assay: Inhibition of platelet aggregation, thrombin receptor activating peptide (TRAP) as agonist; type: cell-based; details: TRAP 12 μM, human PRP, read-out: % Reduction in Aggregation TRAP (12 μM); for inhibition at 30 µM: compound 30 μM
Method: (§1) Platelet rich plasma (PRP) was obtained by drawing whole blood from normal human donors (not on any medication) into sodium citrate tubes (3.2%), and centrifuging at 160×g for about 10 minutes. Platelet poor plasma (PPP) was obtained by centrifuging the remainder of the sample after the platelets were removed at 800×g for about 10 minutes. The PRP was adjusted to a count of 280×10^9/L using a mixture of PRP and PPP. The platelets (200 μL) were incubated with the test compounds (25 μL) adjusted to various concentrations (5, 10, 20, 30, 50, and 100 μM) for about 30 minutes at room temperature (approximate final platelet count in the incubation mixture of 250×10^9/L). The samples were incubated for about 3 minutes at about 37° C., and then transferred to the mixing wells of a Chrono-log 4 channel aggregometer (Chrono-log Corp., Havertown, Pa.). After baselines were established, agonist (25 μL of 40 μM ADP (Sigma, St. Louis, Mo.) or 25 μL of 50 μg/mL and 10 μg/mL collagen (Helena Laboratories, Beaumont, Tex.) or 25 μL of 120 μM thrombin receptor activating peptide (TRAP) (Sigma)) was then added. Aggregation was monitored for 5 minutes at 37° C. with stirring (1000 rpm). The amplitude and slope of each tracing were calculated to determine the amount of aggregation. Control samples were performed using only solvent. The % reduction in aggregation was calculated for each sample compared to the proper solvent control.

[2] = test system: platelets (platelet rich plasma); assay: Inhibition of platelet aggregation, collagen as agonist; type: cell-based; details: human PRP; for inhibition at 50 µM: compound 50 μM; for inhibition at 30 µM: compound 30 μM; for inhibition at 100 µM: compound 100 μM
Method: as §1

[3] = test system: platelets (platelet rich plasma); assay: Inhibition of platelet aggregation, ADP as agonist; type: cell-based; details: ADP 4 μM, human PRP, read-out: % Reduction in Aggregation ADP (4 μM); for inhibition at 30 µM: compound 30 μM
Method: as §1

[4] = target: T1, Human Thrombin (Homo sapiens, UniProt P00734); assay: Determination of Anti-Thrombin (Factor IIa) Activity; type: biochemical; details: competitive inhibition; substrate Pefachrome Thr; pH 8.3
T1 construct: Determination of Anti-Thrombin (Factor IIa) Activity; purchased Calbiochem
Method: The test compounds (40 μL) adjusted to various concentrations (0.25 to 100 μM) were incubated with Human Thrombin (Calbiochem) enzyme (5 nM) in 31 mM Tris buffer (pH 8.3) containing 81 mM sodium chloride and 0.63% bovine serum albumin (fraction V)(80 μL) at room temperature for about 30 minutes. 80 μL of Pefachrome® Thr (Pentapharm) was adjusted to various concentrations, from 62.5 μM to 1.25 mM. The activity was measured at about 37° C. by monitoring absorbance at 405 nm for about 15 minutes using a FLUOstar OPTIMA™. Control sample was the solvent alone. Each test compound was analyzed twice using 4 concentrations of compound plus control (in duplicate) with 5 concentrations of substrate (50, 100, 200, 300 and 500 μM). The specific activity (ΔA405/min/nM enzyme) was determined for each data point. The Ki for competitive inhibition was then determined for each test compound using the Enzyme Kinetics module of Sigmaplot 8.0 (SPSS).

[5] = target: T2, Human FXa (Homo sapiens, UniProt P00742); assay: Determination of Anti-Factor Xa (Fxa) Activity; type: biochemical; details: competitive inhibition; substrate Pefachrome Xa; pH 7.5
T2 construct: Determination of Anti-Factor Xa (Fxa) Activity; purchased Calbiochem
Method: The test compounds (40 μL) adjusted to various concentrations (0.25 to 100 μM) were incubated with 5 nM Human FXa (Calbiochem, San Diego, Calif.) enzyme in 125 mM Tris [Tris(hydroxymethyl)aminomethane] buffer (pH 7.5) containing 375 mM sodium chloride and 0.25% polyethylene glycol (MW 8000) (80 μL) at room temperature for about 30 minutes. 80 μL of synthetic substrate Pefachrome® Xa (Pentapharm, Basel, Switzerland), adjusted to various concentrations from 125 μM to 1.25 mM, was added. The activity was measured at 37° C. by monitoring absorbance at 405 nm for 15 minutes using a FLUOstar OPTIMA™ (BMG Labtech GmbH, Offenburg, Germany) microplate reader. Control sample was the solvent alone. Each test compound was analyzed twice using 4 concentrations of compound plus control (in duplicate) with 5 concentrations of substrate (50, 100, 200, 300 and 500 μM). The specific activity (ΔA405/min/nM enzyme) was determined for each data point. The Ki for competitive inhibition was then determined for each test compound using the Enzyme Kinetics module of Sigmaplot 8.0 (SPSS Inc., Chicago, Ill.).

[6] = collagen 1 μg/mL, read-out: % Reduction in Aggregation Collagen (1 μg/mL)
[7] = collagen 5 μg/mL, read-out: % Reduction in Aggregation Collagen (5 μg/mL)

T2 sequence (P00742 235-488 limits assumed): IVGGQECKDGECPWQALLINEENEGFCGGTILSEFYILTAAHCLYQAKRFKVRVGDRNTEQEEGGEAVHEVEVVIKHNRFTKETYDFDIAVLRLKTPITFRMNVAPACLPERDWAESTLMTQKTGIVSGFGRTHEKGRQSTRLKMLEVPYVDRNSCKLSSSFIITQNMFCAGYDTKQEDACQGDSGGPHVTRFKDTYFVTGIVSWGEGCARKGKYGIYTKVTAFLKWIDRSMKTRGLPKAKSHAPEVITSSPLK
T2 sequence (P00742 41-179 partner limits assumed): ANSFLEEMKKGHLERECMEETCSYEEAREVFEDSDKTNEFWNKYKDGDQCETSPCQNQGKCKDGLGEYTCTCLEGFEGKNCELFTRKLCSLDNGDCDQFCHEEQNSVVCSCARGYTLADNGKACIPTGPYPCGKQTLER

SMILES	Ki [4]	Ki [5]	other results
Cc1ncc(CO)c(CNc2ccc(C(=N)N)cc2)c1OCc1ccc(C(=N)N)cc1 [Compound 3, 4-{[3-(4-Carbamimidoyl-benzyloxy)-5-hydroxymethyl-2-methyl-pyridin-4-ylmethyl]-amino}-benzamidine]	–	–	inhibition at 50 µM ([1]; compound 50 μM): 81%; inhibition at 50 µM [2, 6]: 20%; inhibition at 50 µM [2, 7]: 0%; inhibition at 50 µM ([3]; compound 50 μM): 27%
Cc1ncc(CNc2ccc(-c3ccc(C(=N)N)cc3)cc2)c(CO)c1OCc1ccc(C(=N)N)cc1 [Compound 6, 4′-{[5-(4-Carbamimidoyl-benzyloxy)-4-hydroxymethyl-6-methyl-pyridin-3-ylmethyl]-amino}-biphenyl-4-carboxamidine]	10300 nM	2300 nM	inhibition at 30 µM [1]: 86%; inhibition at 30 µM [2, 6]: 100%; inhibition at 30 µM [2, 7]: 44%; inhibition at 30 µM [3]: 89%
Cc1ncc(COc2ccc(C(=N)N)cc2)c(CO)c1OCc1ccc(C(=N)N)cc1 [Compound 15, 4-(5-(4-Carbamimidoyl-benzyloxy)-4-hydroxymethyl-6-methyl-pyridin-3-ylmethoxy)-benzamidine]	1650 nM	11000 nM	–
Cc1ncc(COc2ccc(C(=N)N)cc2)c(C(F)F)c1OCc1ccc(C(=N)N)cc1 [Compound 21, 4-[4,4-Difluoromethyl-6-methyl-5-(4-carbamimidoyl-benzyloxy)-pyridin-3-ylmethoxy]-benzamidine]	510 nM	19000 nM	–
Cc1ncc(CNc2ccc(-c3ccc(C(=N)N)cc3)cc2)c(CNCCCCCC(=O)O)c1O [Compound 46, 6-({5-[(4′-Carbamimidoyl-biphenyl-4-ylamino)-methyl]-3-hydroxy-2-methyl-pyridin-4-ylmethyl}-amino)-hexanoic acid]	–	–	inhibition at 100 µM ([1]; compound 100 μM): 29%; inhibition at 100 µM [2, 6]: 35%; inhibition at 100 µM [2, 7]: 19%; inhibition at 100 µM ([3]; compound 100 μM): 46%
Cc1ncc(CNc2ccc(C(=N)N)cc2)c(CNCCCCCC(=O)O)c1OCc1ccc(C(=N)N)cc1 [Compound 54, 6-({3-(4-Carbamimidoyl-benzyloxy)-5-[(4-carbamimidoyl-phenylamino)-methyl]-2-methyl-pyridin-4-ylmethyl}-amino)-hexanoic acid]	–	–	inhibition at 30 µM [1]: 53%; inhibition at 30 µM [2, 6]: 15%; inhibition at 30 µM [2, 7]: 13%; inhibition at 30 µM [3]: 23%
Cc1ncc(CNc2ccc(-c3ccc(C(=N)N)cc3)cc2F)c(CO)c1OCc1ccc(C(=N)N)cc1 [Compound 63, 4′-{[5-(4-Carbamimidoyl-benzyloxy)-4-hydroxymethyl-6-methyl-pyridin-3-ylmethyl]-amino}-3′-fluoro-biphenyl-4-carboxamidine]	–	–	inhibition at 30 µM [1]: 94%; inhibition at 30 µM [2, 6]: 95%; inhibition at 30 µM [2, 7]: 41%; inhibition at 30 µM [3]: 95%
Cc1ncc(COc2ccc(C(=N)N)cc2)c(C)c1OCc1cccc(C(=N)N)c1 [Compound 70, 4-[4,6-Dimethyl-5-(3-carbamimidoyl-benzyloxyl)-pyridin-3-ylmethoxy]-benzamidine]	700 nM	9000 nM	–
Cc1ncc(CNC(=O)c2ccc(C(=N)N)cc2)c(CO)c1OCc1ccc(C(=N)N)cc1 [Compound 73, 4-Carbamimidoyl-N-[5-(4-carbamimidoyl-benzyloxy)-4-hydroxymethyl-6-methyl-pyridin-3-ylmethyl]-benzamide]	720 nM	3500 nM	–
CCc1c(CNc2ccc(C(=N)N)cc2)cnc(C)c1OCc1cccc(C(=N)N)c1 [Compound 103, 3-{5-[(4-Amidino-phenylamino)-methyl]-4-ethyl-2-methyl-pyridin-3-yloxymethyl}-benzamidine]	47 nM	961 nM	–
Cc1ncc(CNc2ccc(C(=N)N)cc2)c(CF)c1OCc1cccc(C(=N)N)c1 [Compound 108, 4-{[4-Fluoromethyl-5-(3-amidine-benzyloxy)-6-methyl-pyridin-3-ylmethyl]-amino}-benzamidine]	–	378 nM	–
Cc1ncc(CNc2ccc(C(=N)N)cc2)cc1OCc1cccc(C(=N)N)c1 [Compound 136, 4-((5-(3-amidinebenzyloxy)-6-methylpyridin-3-yl)methylamino)benzamidine]	333 nM	503 nM	–
Cc1c(CNc2ccc(C(=N)N)cc2)cnc(CO)c1OCc1cccc(C(=N)N)c1 [Compound 138, 4-{[5-(3-Amidine-benzyloxy)-6-hydroxymethyl-4-methyl-pyridin-3-ylmethyl]-amino}-benzamidine]	39 nM	412 nM	–
Cc1c(CNc2ccc(C(=N)N)cc2)cnc(CF)c1OCc1cccc(C(=N)N)c1 [Compound 140, 4-{[5-(3-Amidine-benzyloxy)-6-fluoro-methyl-4-methyl-pyridin-3-ylmethyl]-amino}-benzamidine]	17 nM	423 nM	–
Cc1c(CNc2ccc(C(=N)N)cc2)cnc(C=O)c1OCc1cccc(C(=N)N)c1 [Compound 142, 4-{[5-(3-Amidine-benzyloxy)-6-formyl-4-methyl-pyridin-3-ylmethyl]-amino}-benzamidine]	186 nM	589 nM	–
N=C(N)c1ccc(NCc2cnc(CF)c(OCc3cccc(C(=N)N)c3)c2CF)cc1 [Compound 148, 4-{[4,6-Bis-fluoromethyl-5-(3-amidine-benzyloxy)-pyridin-3-ylmethyl]-amino}-benzamidine]	9 nM	473 nM	–
N=C(N)c1ccc(COc2c(CF)ncc(CNc3ccc(C(=N)N)cc3)c2CF)cc1 [Compound 153, 4-{5-[(4-Carbamimidoyl-phenylamino)-methyl]-2,4-bis-fluoromethyl-pyridin-3-yloxymethyl}-benzamidine]	12 nM	665 nM	–
Cc1nc(C2CC2)c(CNc2ccc(C(=N)N)cc2)c(CO)c1OCc1cccc(C(=N)N)c1 [Compound 172, 3-{5-[(4-Carbamimidoyl-phenylamino)-methyl]-6-cyclopropyl-4-hydroxymethyl-2-methyl-pyridin-3-yloxymethyl}-benzamidine]	41 nM	380 nM	–
Cc1nc(C2CC2)c(CNc2ccc(C(=N)N)cc2)c(CO)c1OCc1ccc(C(=N)N)cc1 [Compound 174, 4-{5-[(4-Carbamimidoyl-phenylamino)-methyl]-6-cyclopropyl-4-hydroxymethyl-2-methyl-pyridin-3-yloxymethyl}-benzamidine]	37 nM	1080 nM	–
